Patent publication US20100137294A1, “COMPOUNDS, COMPOSITIONS AND METHODS FOR CONTROLLING INVERTEBRATE PESTS” (GENETIC TECHNOLOGIES LIMITED, priority 2006, published 2010)

Test system: T. vitrinus L3 larvae
Assay: Testing of compounds on T. vitrinus L3 larvae (96-well microplate larval kill assay)
Assay type: cell-based, Trichostrongylus vitrinus
Conditions: primary screening, 5 mM compound, 5% DMSO, overnight RT
Experimental: The ability of the compounds to kill T. vitrinus L3 larvae was tested. The L3 stage is encased in a sheath, which protects the larva from external stresses such as desiccation and chemicals. This makes it more difficult to kill this part of the lifecycle with chemotherapeutic agents. The tests will determine which compounds can kill this lifestage, therefore defining which compounds can penetrate through the sheath and subsequently kill the larva.
The L3 stage of T. vitrinus were collected and stored in water at 4° C. until needed. Each compound was suspended in 100% dimethyl sulphoxide (DMSO) to a final concentration of 100 mM.
Around fifty L3 larvae were added, in 95 μl of water, to the wells of a 96-well microtitre plate. The plate was incubated overnight RT. Plates were viewed under a binocular microscope and the proportion of dead L3 larvae in the controls and each treatment were scored. Concentrations above 5 mM were not tested as DMSO alone kills larvae when the proportion exceeds 5% of the total volume. Many of the compounds are predicted to have limited solubility in aqueous solution, thus requiring the presence of organic solvent. The appropriate controls included wells with and without various concentrations of DMSO alone.
Three compounds ((4), (10) and (20)) could also kill 100% of larvae exposed at 0.5 mM.

Q: With CCCCCCCCN1C(=O)C2C3CCC(O3)C2C1=O (centres unmarked) [Compound 6, N-octyl-7-Oxabicyclo(2.2.1)heptane-2,3-dicarboximide] as the molecule, how does the “% of T. vitrinus L3 larvae killed” value read?
A: 100%

Q: Which “% of T. vitrinus L3 larvae killed” value does the source give for CCCN1C(=O)C2C(C1=O)[C@H]1CC[C@@H]2O1 (some centres unmarked) [Compound 4, N-propyl-7-Oxabicyclo(2.2.1)heptane-2,3-dicarboximide] here?
A: 100%

Q: For CCCCCCCCCCN1C(=O)C2C3CCC(O3)C2C1=O (centres unmarked) [Compound 7, N-decyl-7-Oxabicyclo(2.2.1)heptane-2,3-dicarboximide], which “% of T. vitrinus L3 larvae killed” value is on record?
A: 100%

Q: With O=C(O)C(Cc1ccc(O)cc1)N1C(=O)C2C(C1=O)[C@H]1CC[C@@H]2O1 (some centres unmarked) [Compound 19] as the molecule, how does the “% of T. vitrinus L3 larvae killed” value read?
A: 100%

Q: For O=C(O)C1C(C(=O)NCCN2CCOCC2)[C@H]2CC[C@@H]1O2 (some centres unmarked) [Compound 12, 3-(Ethylmorpholinecarbamoyl)-7-Oxabicyclo(2.2.1)heptane-2-carboxylic acid], which “% of T. vitrinus L3 larvae killed” value is on record?
A: 100%

Q: For CCCCN1C(=O)C2C3CCC(O3)C2C1=O (centres unmarked) [Compound 5, N-butyl-7-Oxabicyclo(2.2.1)heptane-2,3-dicarboximide], which “% of T. vitrinus L3 larvae killed” value is on record?
A: 100%

Q: With O=C1NC(=O)C2C1[C@@H]1CC[C@H]2O1 (stereo partly drawn) [Compound 20, exo-7-Oxabicyclo(2.2.1)heptane-2,3-dicarboximide] as the molecule, how does the “% of T. vitrinus L3 larvae killed” value read?
A: 100%

Same assay, conditions: secondary screening, serial ten-fold dilutions, 0.5 mM

Q: With CCCN1C(=O)C2C(C1=O)[C@H]1CC[C@@H]2O1 (some centres unmarked) [Compound 4, N-propyl-7-Oxabicyclo(2.2.1)heptane-2,3-dicarboximide] as the molecule, how does the “% of T. vitrinus L3 larvae killed” value read?
A: 100%

Q: Which “% of T. vitrinus L3 larvae killed” value does the source give for O=C1NC(=O)C2C1[C@@H]1CC[C@H]2O1 (stereo partly drawn) [Compound 20, exo-7-Oxabicyclo(2.2.1)heptane-2,3-dicarboximide] here?
A: 100%

Test system: H. contortus L3 larvae
Assay: Testing compounds on H. contortus L3 larvae (96-well microplate larval kill assay)
Assay type: cell-based, Haemonchus contortus
Conditions: secondary screening, sequential ten-fold dilutions of 5 mM down to 0.5
Experimental: The L3 stage of H. contortus was collected from the faeces of experimentally infected sheep and stored in water at room temperature until needed. A stock solution of each compound was prepared by suspending the compound in 100% dimethyl sulphoxide (DMSO) to a final concentration of 100 mM.
For this set of experiments, Trichostrongylus vitrinus (T. vitrinus) L3 larvae were used as positive controls by testing with the compounds identified in previous experiments as being able to kill all larvae. Approximately 50 L3 larvae of each species were added, in 95 μl of water, to the wells of a 96-well microtitre plate. All compounds were tested initially at a concentration of 5 mM by adding 5 μl of inhibitor in 100% DMSO.
The plates were incubated overnight at room temperature (RT). Plates were viewed under a binocular microscope and the compounds showing 100% kill of H. contortus larvae were determined. Concentrations above 5 mM were not tested as DMSO alone kills larvae when the proportion exceeds 5% of the total volume. Many of the compounds are predicted to have limited solubility in aqueous solution, thus requiring the presence of organic solvent. Additional controls included wells with and without various concentrations of DMSO alone.
Eight inhibitors, from the primary screening, appeared to kill 90-100% of H. contortus L3 larvae at a concentration of 5 mM. […]

Q: Which “killing of H. contortus L3 larvae across the dilution series” value does the source give for O=C1C2C(C(=O)N1CCO)[C@H]1CC[C@@H]2O1 (some centres unmarked) [Compound 15, N-Ethyl alcohol-7-Oxabicyclo(2.2.1)heptane-2,3-dicarboximide] here?
A: killed the larvae at the highest and lowest concentrations used

Test system: not given
Assay: not given
Conditions: not given

Q: With CC(C)(CO)C12CCC(O1)C1C(=O)NC(=O)C12 (centres unmarked) as the molecule, how does the melting point read?
A: 134 to 136 °C

Q: For O=C(O)C1C(C(=O)NCC2OCCc3sccc32)[C@H]2CC[C@@H]1O2 (some centres unmarked) [Compound 81, 3,[(6,7-Dihydro-4H-thieno[3,2-c]pyran-4-yl)methylcarbamoyl]-7-oxabicyclo[2.2.1]heptane-2-carboxylic acid], which melting point is on record?
A: 159 to 160 °C

Q: For CC(C)(C)c1ccccc1NC(=O)C1C(C(=O)O)[C@@H]2CC[C@H]1O2 (some centres unmarked), which melting point is on record?
A: 163 to 164 °C

Q: For O=C(O)C1C(C(=O)N2CCCCC2)[C@H]2CC[C@@H]1O2 (some centres unmarked), which melting point is on record?
A: 140 to 142 °C

Q: Which melting point does the source give for CN(C)CCOc1ccc(N2C(=O)C3C(C2=O)[C@H]2CC[C@@H]3O2)cc1 (some centres unmarked) here?
A: 145 to 146 °C

Q: For COc1ccc(CC23CCC(O2)C2C(=O)NC(=O)C23)cc1 (centres unmarked), which melting point is on record?
A: 83 to 85 °C

Q: Which melting point does the source give for CCCCCCCCNC(=O)C1C(C(=O)O)[C@@H]2CC[C@H]1O2 (stereo in doubt) here?
A: 131 °C

Q: Which melting point does the source give for CCCCN(C(=O)C1C2CCC(O2)C1C(=O)O)c1ccccc1 (centres unmarked) here?
A: 105 to 107 °C

Q: For COc1ccc(CC23CCC(O2)C2C(=O)NC(=O)C23)cc1OC (centres unmarked), which melting point is on record?
A: 155 to 157 °C

Q: Which melting point does the source give for CCc1ccccc1NC(=O)C1C(C(=O)O)[C@@H]2CC[C@H]1O2 (stereo in doubt) here?
A: 171 to 172 °C

Q: For O=C(O)CCCCCCCNC(=O)C1C(C(=O)O)[C@@H]2CC[C@H]1O2 (stereo in doubt) [Compound 18, 3-(7-Carboxyheptylcarbamoyl)-7-oxabicyclo[2.2.1]heptane-2-carboxylic acid], which melting point is on record?
A: 125 to 126 °C

Q: With O=C(O)c1ccc(NC(=O)C2C(C(=O)O)[C@@H]3CC[C@H]2O3)cc1Cl (stereo in doubt) as the molecule, how does the melting point read?
A: 216 to 217 °C

Q: Which melting point does the source give for CCCCCCCCCCCCC12CCC(O1)C1C(=O)NC(=O)C12 (centres unmarked) here?
A: 35 to 37 °C

Q: Which melting point does the source give for O=C1NC(=O)C2C1C1CCC2(CCCCCCO)O1 (centres unmarked) here?
A: 56 to 57 °C

Q: With O=C1NC(=O)C2C1C1CCC2(C2CCCCC2)O1 (centres unmarked) as the molecule, how does the melting point read?
A: 97 to 99 °C

Q: For CCC(C)C12CCC(O1)C1C(=O)NC(=O)C12 (centres unmarked), which melting point is on record?
A: 44 to 46 °C

Q: Which melting point does the source give for O=C1NC(=O)C2C1C1CCC2(N2CCOCC2)O1 (centres unmarked) here?
A: 169 to 171 °C

Q: Which melting point does the source give for O=C1C2C(C(=O)N1c1ncccc1OCc1ccccc1)[C@H]1CC[C@@H]2O1 (some centres unmarked) [Compound 77, 3-[3-(Benzyloxy)pyridin-2-yl]-10-oxa-4-azatricyclo[5.2.1]decane-3,5-dione] here?
A: 99 to 102 °C

Q: With O=C1NC(=O)C2C1C1CCC2(c2ccc([N+](=O)[O-])cc2)O1 (centres unmarked) as the molecule, how does the melting point read?
A: 207 to 209 °C

Q: Which melting point does the source give for CCC12CCC(O1)C1C(=O)NC(=O)C12 (centres unmarked) here?
A: 166 to 169 °C

Q: Which melting point does the source give for COC(CO)CN1C(=O)[C@@H]2[C@H](C1=O)[C@H]1CC[C@@H]2O1 (some centres unmarked) [Compound 16, N-2-Methoxypropyl-1-ol-7-Oxabicyclo(2.2.1)heptane-2,3-dicarboximide] here?
A: 96 to 97 °C

Q: With O=C(O)C1C(C(=O)NC2CCN(Cc3ccccc3)CC2)[C@H]2CC[C@@H]1O2 (stereo in doubt) as the molecule, how does the melting point read?
A: 124 to 125 °C

Q: With C=CCC12CCC(O1)C1C(=O)NC(=O)C12 (centres unmarked) as the molecule, how does the melting point read?
A: 116 to 117 °C

Q: Which melting point does the source give for O=C1NC(=O)C2C1C1CCC2(c2ccccc2)O1 (centres unmarked) here?
A: 171 to 172 °C

Q: For O=C1C2C(C(=O)N1CCO)[C@H]1CC[C@@H]2O1 (some centres unmarked) [Compound 15, N-Ethyl alcohol-7-Oxabicyclo(2.2.1)heptane-2,3-dicarboximide], which melting point is on record?
A: 164 to 166 °C

Q: With Cn1ccc2c(CNC(=O)C3C(C(=O)O)[C@@H]4CC[C@H]3O4)cccc21 (stereo in doubt) [Compound 80, 3-[(1-Methyl-1H-indol-4-yl)methylcarbamoyl]-7-oxabicyclo[2.2.1]heptane-2-carboxylic acid] as the molecule, how does the melting point read?
A: 161 °C

Q: For CCCCCCCCCCNC(=O)C1C(C(=O)O)[C@@H]2CC[C@H]1O2 (stereo in doubt), which melting point is on record?
A: 110 to 111 °C

Q: With O=C(O)CCCCCN1C(=O)C2C(C1=O)[C@H]1CC[C@@H]2O1 (some centres unmarked) [Compound 14, N-Hexanoic acid-7-Oxabicyclo(2.2.1)heptane-2,3-dicarboximide] as the molecule, how does the melting point read?
A: 110 to 112 °C

Q: Which melting point does the source give for CCCCCCCCCCCCCCCCCCC12CCC(O1)C1C(=O)NC(=O)C12 (centres unmarked) here?
A: 62 to 64 °C

Q: With C=CCNC(=O)C1C(C(=O)O)[C@@H]2CC[C@H]1O2 (stereo in doubt) as the molecule, how does the melting point read?
A: 105 to 107 °C

Q: For O=C1NC(=O)C2C1C1CCC2(CCCO)O1 (centres unmarked), which melting point is on record?
A: 164 to 166 °C

Q: Which melting point does the source give for CN(C)CCOc1ccccc1N1C(=O)C2C(C1=O)[C@H]1CC[C@@H]2O1 (some centres unmarked) [Compound 79, 4,{2,[2-(Dimethylamino)ethoxy]phenyl}-10-oxa-4-azatricyclo[5.2.1]decane-3,5-dione] here?
A: 113 to 115 °C

Q: Which melting point does the source give for CC(CO)C12CCC(O1)C1C(=O)NC(=O)C12 (centres unmarked) here?
A: 104 to 107 °C

Q: With Nc1ccccc1CC12CCC(O1)C1C(=O)NC(=O)C12 (centres unmarked) as the molecule, how does the melting point read?
A: 159 to 160 °C

Q: Which melting point does the source give for CCCCCCCCCCCCCCC12CCC(O1)C1C(=O)NC(=O)C12 (centres unmarked) here?
A: 45 to 46 °C

Q: Which melting point does the source give for O=C(O)CCCN1C(=O)C2C(C1=O)[C@H]1CC[C@@H]2O1 (some centres unmarked) [Compound 13, N-Butanoic acid-7-Oxabicyclo(2.2.1)heptane-2,3-dicarboximide] here?
A: 162 to 164 °C

Q: For C=CCCN1C(=O)C2C(C1=O)[C@H]1CC[C@@H]2O1 (some centres unmarked), which melting point is on record?
A: 64 to 65 °C
